Results reported in PMC9669179 (Epilepsia, 2022).
Like-named read-outs stand apart in the source and are kept apart here.

What was measured:
[1] = in vivo; conditions: Sprague Dawley, rat, ip
[2] = system: adult Sprague-Dawley rats; conditions: rat, MES, i.p.; cited from earlier work
[3] = in vivo; conditions: CF-1, mouse, ip
[4] = CF-1, mouse, in vivo
[5] = system: adult CF-1 mice; conditions: mouse, MES, i.p.; cited from earlier work
[6] = rat, in vivo
[7] = system: rats; conditions: rat, cited from earlier work
[8] = in vivo; conditions: CF-1, mouse, ip; remark: listed apart in the source
[9] = system: adult CF-1 mice; experiment: Maximal electroshock; assay type: in vivo, mouse; conditions: MES
[10] = Sprague Dawley, rat, in vivo
[11] = system: adult Sprague-Dawley rats; experiment: Maximal electroshock; assay type: in vivo, rat; conditions: MES; for Efficacy in rats (number seizure protected /number tested): low dose i.p. (CLB 17, CBZ 3, VPA 165 mg/kg)
[12] = in vivo; conditions: Sprague Dawley, rat, ip; remark: listed apart in the source
[13] = CF-1, mouse, in vivo; remark: listed apart in the source
[14] = system: mice; conditions: mouse, cited from earlier work
[15] = Brain pharmacokinetics in rats; conditions: rat
[16] = system: adult male CF-1 mice; conditions: mouse, 6 Hz 44 mA, i.p.; cited from earlier work
[17] = Brain pharmacokinetics in mice
[18] = Plasma pharmacokinetics in mice; conditions: CF-1, mouse, in vivo, ip
[19] = system: adult male CF-1 mice; experiment: 6 Hz 44 mA seizure test in mice; assay type: in vivo, mouse
[20] = Plasma pharmacokinetics in rats; conditions: Sprague Dawley, rat, in vivo, ip
[21] = low dose i.p.: CLB 17, CBZ 3, VPA 165, LEV 14 mg/kg
[22] = mouse, low dose i.p.: CLB 7, CBZ 7, VPA 260, LEV 20 mg/kg

For `NC(=O)N1c2ccccc2C=Cc2ccccc21` [CBZ, carbamazepine], the Tmax [1] is listed as 15 min, the half-life ([1]; Plasma t1/2) is listed as 49.2 min and the “ED50 - low dose” value [2] is listed as 3 mg/kg. For the same molecule, the Tmax [3] was 15 min, the half-life ([3]; Plasma t1/2) was 78 min and the “High-dose exposures greater than expected from low-dose” value [4] was 50 - 60%. For the same molecule, the “Plasma Dose Prop (AUC)” value [4] was 1.49, the “Plasma Dose Prop (Cmax)” value [4] was 0.917 and the “Plasma t1/2” value ([4]; ip) was 66.6 min. For the same molecule, the “ED50 - low dose” value [5] was 7 mg/kg, the “Plasma Dose Prop (AUC)” value ([6]; Sprague Dawley) was 2.29 and the “Plasma Dose Prop (Cmax)” value ([6]; Sprague Dawley) was 1.138. The “Plasma t1/2” value ([6]; Sprague Dawley, ip) was 70.8 min, the “High-dose concentrations relative to expected from low-dose” value [6] was “approximately two-fold” and the “TD50 - high dose” value ([7]; in vivo, ip) was 24 mg/kg. The Tmax [8] was 15 min, the half-life ([8]; Brain t1/2) was 31.2 min and the “Efficacy in mice (number seizure protected/number tested)” value ([9]; high dose i.p. (CBZ 40 mg/kg), time test 0.25 h) was 4/4. The “Efficacy in mice (number seizure protected/number tested)” value ([9]; high dose i.p. (CBZ 40 mg/kg), time test 0.5 h) was 4/4, the “Efficacy in mice (number seizure protected/number tested)” value ([9]; high dose i.p. (CBZ 40 mg/kg), time test 1 h) was 4/4 and the “Efficacy in mice (number seizure protected/number tested)” value ([9]; high dose i.p. (CBZ 40 mg/kg), time test 2 h) was 4/4. For the same molecule, the “Efficacy in mice (number seizure protected/number tested)” value ([9]; high dose i.p. (CBZ 40 mg/kg), time test 4 h) was 4/4, the “Efficacy in mice (number seizure protected/number tested)” value ([9]; high dose i.p. (CBZ 40 mg/kg), time test 8 h) was 0/4 and the “Efficacy in mice (number seizure protected/number tested)” value ([9]; low dose i.p. (CBZ 7 mg/kg), time test 0.25 h) was 3/4. The “Efficacy in mice (number seizure protected/number tested)” value ([9]; low dose i.p. (CBZ 7 mg/kg), time test 0.5 h) was 3/4, the “Efficacy in mice (number seizure protected/number tested)” value ([9]; low dose i.p. (CBZ 7 mg/kg), time test 1 h) was 2/4 and the “Efficacy in mice (number seizure protected/number tested)” value ([9]; low dose i.p. (CBZ 7 mg/kg), time test 2 h) was 0/4. For the same molecule, the “Efficacy in mice (number seizure protected/number tested)” value ([9]; low dose i.p. (CBZ 7 mg/kg), time test 4 h) was 0/4, the “Efficacy in mice (number seizure protected/number tested)” value ([9]; low dose i.p. (CBZ 7 mg/kg), time test 8 h) was 0/4 and the “Seizure protection (in words)” value ([9]; mice, high dose CBZ 40 mg/kg i.p.) was “complete protection”. The “Brain Dose Prop (AUC)” value [10] was 1.89, the “Brain t1/2” value ([10]; ip) was 72 min and the “Efficacy in rats (number seizure protected /number tested)” value (from here on “Efficacy in rats”) ([11]; time test 0.25 h) was 1/4. The “Efficacy in rats” value ([11]; time test 0.5 h) was 1/4, the “Efficacy in rats” value ([11]; time test 1 h) was 0/4 and the “Efficacy in rats” value ([11]; time test 2 h) was 0/4. For the same molecule, the “Efficacy in rats” value ([11]; time test 4 h) was 0/4, the “Efficacy in rats” value ([11]; time test 8 h) was 0/4 and the “Period for which 100% seizure protection was sustained” value ([11]; rats, high-dose CBZ i.p.) was ~ 2 hrs. For the same molecule, the Seizure protection ([11]; rats, high-dose CBZ i.p.) was 100%, the “Seizure protection (% protected)” value ([11]; rats, low-dose CBZ i.p., within the first hour) was 25% and the Tmax [12] was 15 min. The half-life ([12]; Brain t1/2) was 46.2 min, the “Brain Dose Prop (AUC)” value [13] was 1.64 and the “Brain t1/2” value ([13]; ip) was 59.4 min. The “TD50 - high dose” value ([14]; in vivo, ip) was 40 mg/kg.

For `CN1C(=O)CC(=O)N(c2ccccc2)c2cc(Cl)ccc21` [CLB, Clobazam], the “ED50 - low dose” value [2] is given as 17 mg/kg, the Tmax ([15]; Sprague Dawley, in vivo, ip) is given as 15 min and the “Brain AUC (0-8 hr)” value [15, 21] is given as 2.88 ng·h/mg. The “Brain Cmax” value [15, 21] was 2.90 ng/mg, the “Brain Cmin” value [15, 21] was 0.027 ng/mg and the “ED50 - low dose” value [16] was 7 mg/kg. For the same molecule, the Tmax ([17]; CF-1, mouse, in vivo, ip) was 15 min, the “Brain AUC (0-8 hr)” value [17, 22] was 1.74 ng·h/mg and the “Brain Cmax” value [17, 22] was 2.26 ng/mg. For the same molecule, the “Brain Cmin” value [17, 22] was 0.014 ng/mg, the “TD50 - high dose” value ([7]; minimum motor impairment test, i.p.) was 37 mg/kg and the Tmax [18] was 15 min. For the same molecule, the “Efficacy in mice (number seizure protected/number tested)” value ([19]; high dose i.p. (CLB 17, VPA 570, LEV 500 mg/kg), time test 0.25 h) was 4/4, the “Efficacy in mice (number seizure protected/number tested)” value ([19]; high dose i.p. (CLB 17, VPA 570, LEV 500 mg/kg), time test 0.5 h) was 4/4 and the “Efficacy in mice (number seizure protected/number tested)” value ([19]; high dose i.p. (CLB 17, VPA 570, LEV 500 mg/kg), time test 1 h) was 3/4. For the same molecule, the “Efficacy in mice (number seizure protected/number tested)” value ([19]; high dose i.p. (CLB 17, VPA 570, LEV 500 mg/kg), time test 2 h) was 3/4, the “Efficacy in mice (number seizure protected/number tested)” value ([19]; high dose i.p. (CLB 17, VPA 570, LEV 500 mg/kg), time test 4 h) was 1/4 and the “Efficacy in mice (number seizure protected/number tested)” value ([19]; high dose i.p. (CLB 17, VPA 570, LEV 500 mg/kg), time test 8 h) was 0/4. The “Efficacy in mice (number seizure protected/number tested)” value ([19]; low dose i.p. (CLB 7, VPA 260, LEV 20 mg/kg), time test 0.25 h) was 2/4, the “Efficacy in mice (number seizure protected/number tested)” value ([19]; low dose i.p. (CLB 7, VPA 260, LEV 20 mg/kg), time test 0.5 h) was 1/4 and the “Efficacy in mice (number seizure protected/number tested)” value ([19]; low dose i.p. (CLB 7, VPA 260, LEV 20 mg/kg), time test 1 h) was 3/4. For the same molecule, the “Efficacy in mice (number seizure protected/number tested)” value ([19]; low dose i.p. (CLB 7, VPA 260, LEV 20 mg/kg), time test 2 h) was 0/4, the “Efficacy in mice (number seizure protected/number tested)” value ([19]; low dose i.p. (CLB 7, VPA 260, LEV 20 mg/kg), time test 4 h) was 0/4 and the “Efficacy in mice (number seizure protected/number tested)” value ([19]; low dose i.p. (CLB 7, VPA 260, LEV 20 mg/kg), time test 8 h) was 0/4. For the same molecule, the “Efficacy in rats” value ([11]; time test 0.25 h) was 0/4, the “Efficacy in rats” value ([11]; time test 0.5 h) was 0/4 and the “Efficacy in rats” value ([11]; time test 1 h) was 0/4. For the same molecule, the “Efficacy in rats” value ([11]; time test 2 h) was 0/4, the “Efficacy in rats” value ([11]; time test 4 h) was 0/4 and the “Efficacy in rats” value ([11]; time test 8 h) was 0/4. The “Seizure protection (in words)” value ([11]; rats, high dose i.p. (CLB 37, VPA 315 mg/kg)) was “seizure protection was observed within the first hour”, the “Seizure protection (in words)” value ([11]; rats, low dose i.p. (CLB 17, VPA 165 mg/kg)) was “did not protect” and the “TD50 - high dose” value ([14]; rotarod test, i.p.) was 17 mg/kg. For the same molecule, the Tmax [20] was 15 min.
